{
  "source": "PubChem BioAssay AID1259407",
  "about": "(Chemical Carcinogenesis Research Information System (CCRIS), 2018)",
  "test_system": "CCRIS mutagenicity, Ames/micronucleus/aberration tests",
  "experiment": "CCRIS mutagenicity studies",
  "key": {"[1]": {"details": "Test System: AMES SALMONELLA TYPHIMURIUM, Strain/Indicator: TA98, Metabolic Activation: NONE, Method: STANDARD PLATE"}, "[2]": {"details": "Test System: AMES SALMONELLA TYPHIMURIUM, Strain/Indicator: TA98, Metabolic Activation: RAT, LIVER, S-9, Method: STANDARD PLATE"}, "[3]": {"details": "Test System: AMES SALMONELLA TYPHIMURIUM, Strain/Indicator: TA100, Metabolic Activation: NONE, Method: STANDARD PLATE"}, "[4]": {"details": "Test System: AMES SALMONELLA TYPHIMURIUM, Strain/Indicator: TA1538, Metabolic Activation: NONE, Method: STANDARD PLATE"}, "[5]": {"details": "Test System: AMES SALMONELLA TYPHIMURIUM, Strain/Indicator: TA1538, Metabolic Activation: RAT, LIVER, S-9, AROCLOR 1254, Method: STANDARD PLATE"}},
  "note": "Active and inactive are the calls of the source. How the calls were made is not given here.",
  "data": [
    {"molecule": "Nc1ccc2c(c1)C(=O)c1ccccc1C2=O", "values": [
      {"measurement": "mutagenic call", "setting": "End Point: IN VITRO CHROMOSOMAL ABERRATIONS, Test System: CHL CELLS, Metabolic Activation: RAT, LIVER, S-9, SODIUM PHENOBARBITAL AND 5,6-BENZOFLAVONE", "result": "inactive; negative"},
      {"measurement": "mutagenic call", "setting": "Test System: AMES SALMONELLA TYPHIMURIUM, Strain/Indicator: TA98, Metabolic Activation: HAMSTER, LIVER, S-9, AROCLOR 1254, Method: STANDARD PLATE", "result": "active; positive"},
      {"measurement": "mutagenic call", "setting": "Test System: AMES SALMONELLA TYPHIMURIUM, Strain/Indicator: TA98, Metabolic Activation: HAMSTER, LIVER, S-9, Method: STANDARD PLATE", "result": "active; positive"},
      {"measurement": "mutagenic call", "setting": "Test System: AMES SALMONELLA TYPHIMURIUM, Strain/Indicator: TA98, Metabolic Activation: MOUSE, LIVER, S-9, AROCLOR 1254, Method: STANDARD PLATE", "result": "active; positive"},
      {"measurement": "mutagenic call", "setting": "Test System: AMES SALMONELLA TYPHIMURIUM, Strain/Indicator: TA98, Metabolic Activation: MOUSE, LIVER, S-9, Method: STANDARD PLATE", "result": "active; positive"},
      {"measurement": "mutagenic call", "setting": "[1]", "result": "inactive; negative"},
      {"measurement": "mutagenic call", "setting": "Test System: AMES SALMONELLA TYPHIMURIUM, Strain/Indicator: TA98, Metabolic Activation: RAT, LIVER, S-9, AROCLOR 1254, Method: STANDARD PLATE", "result": "active; positive"},
      {"measurement": "mutagenic call", "setting": "[2]", "result": "active; positive"},
      {"measurement": "mutagenic call", "setting": "Test System: AMES SALMONELLA TYPHIMURIUM, Strain/Indicator: TA100, Metabolic Activation: HAMSTER, LIVER, S-9, AROCLOR 1254, Method: STANDARD PLATE", "result": "active; positive"},
      {"measurement": "mutagenic call", "setting": "Test System: AMES SALMONELLA TYPHIMURIUM, Strain/Indicator: TA100, Metabolic Activation: HAMSTER, LIVER, S-9, Method: STANDARD PLATE", "result": "active; positive"},
      {"measurement": "mutagenic call", "setting": "Test System: AMES SALMONELLA TYPHIMURIUM, Strain/Indicator: TA100, Metabolic Activation: MOUSE, LIVER, S-9, AROCLOR 1254, Method: STANDARD PLATE", "result": "active; positive"},
      {"measurement": "mutagenic call", "setting": "[3]", "result": "inactive; negative"},
      {"measurement": "mutagenic call", "setting": "Test System: AMES SALMONELLA TYPHIMURIUM, Strain/Indicator: TA100, Metabolic Activation: RAT, LIVER, S-9, AROCLOR 1254, Method: STANDARD PLATE", "result": "active; positive"},
      {"measurement": "mutagenic call", "setting": "Test System: AMES SALMONELLA TYPHIMURIUM, Strain/Indicator: TA1535, Metabolic Activation: HAMSTER, LIVER, S-9, Method: STANDARD PLATE", "result": "inactive; negative"},
      {"measurement": "mutagenic call", "setting": "Test System: AMES SALMONELLA TYPHIMURIUM, Strain/Indicator: TA1535, Metabolic Activation: MOUSE, LIVER, S-9, AROCLOR 1254, Method: STANDARD PLATE", "result": "inactive; negative"},
      {"measurement": "mutagenic call", "setting": "Test System: AMES SALMONELLA TYPHIMURIUM, Strain/Indicator: TA1535, Metabolic Activation: MOUSE, LIVER, S-9, Method: STANDARD PLATE", "result": "inactive; negative"},
      {"measurement": "mutagenic call", "setting": "Test System: AMES SALMONELLA TYPHIMURIUM, Strain/Indicator: TA1535, Metabolic Activation: NONE, Method: STANDARD PLATE", "result": "inactive; negative"},
      {"measurement": "mutagenic call", "setting": "Test System: AMES SALMONELLA TYPHIMURIUM, Strain/Indicator: TA1537, Metabolic Activation: HAMSTER, LIVER, S-9, AROCLOR 1254, Method: STANDARD PLATE", "result": "active; positive"},
      {"measurement": "mutagenic call", "setting": "Test System: AMES SALMONELLA TYPHIMURIUM, Strain/Indicator: TA1537, Metabolic Activation: HAMSTER, LIVER, S-9, Method: STANDARD PLATE", "result": "active; positive"},
      {"measurement": "mutagenic call", "setting": "Test System: AMES SALMONELLA TYPHIMURIUM, Strain/Indicator: TA1537, Metabolic Activation: MOUSE, LIVER, S-9, AROCLOR 1254, Method: STANDARD PLATE", "result": "active; positive"},
      {"measurement": "mutagenic call", "setting": "Test System: AMES SALMONELLA TYPHIMURIUM, Strain/Indicator: TA1537, Metabolic Activation: MOUSE, LIVER, S-9, Method: STANDARD PLATE", "result": "active; positive"},
      {"measurement": "mutagenic call", "setting": "Test System: AMES SALMONELLA TYPHIMURIUM, Strain/Indicator: TA1537, Metabolic Activation: RAT, LIVER, S-9, AROCLOR 1254, Method: STANDARD PLATE", "result": "active; positive"},
      {"measurement": "mutagenic call", "setting": "Test System: AMES SALMONELLA TYPHIMURIUM, Strain/Indicator: TA1537, Metabolic Activation: RAT, LIVER, S-9, Method: STANDARD PLATE", "result": "active; positive"},
      {"measurement": "mutagenic call", "setting": "Test System: AMES SALMONELLA TYPHIMURIUM, Strain/Indicator: TA1538, Metabolic Activation: HAMSTER, LIVER, S-9, AROCLOR 1254, Method: STANDARD PLATE", "result": "active; positive"},
      {"measurement": "mutagenic call", "setting": "Test System: AMES SALMONELLA TYPHIMURIUM, Strain/Indicator: TA1538, Metabolic Activation: HAMSTER, LIVER, S-9, Method: STANDARD PLATE", "result": "active; positive"},
      {"measurement": "mutagenic call", "setting": "Test System: AMES SALMONELLA TYPHIMURIUM, Strain/Indicator: TA1538, Metabolic Activation: MOUSE, LIVER, S-9, AROCLOR 1254, Method: STANDARD PLATE", "result": "active; positive"},
      {"measurement": "mutagenic call", "setting": "Test System: AMES SALMONELLA TYPHIMURIUM, Strain/Indicator: TA1538, Metabolic Activation: MOUSE, LIVER, S-9, Method: STANDARD PLATE", "result": "active; positive"},
      {"measurement": "mutagenic call", "setting": "[4]", "result": "inactive; negative"},
      {"measurement": "mutagenic call", "setting": "[5]", "result": "active; positive"},
      {"measurement": "mutagenic call", "setting": "Test System: AMES SALMONELLA TYPHIMURIUM, Strain/Indicator: TA1538, Metabolic Activation: RAT, LIVER, S-9, Method: STANDARD PLATE", "result": "active; positive"},
      {"measurement": "mutagenic call", "setting": "Test System: E. COLI, Strain/Indicator: WP2 UVRA, Metabolic Activation: HAMSTER, LIVER, S-9, Method: STANDARD PLATE", "result": "inactive; negative"},
      {"measurement": "mutagenic call", "setting": "Test System: E. COLI, Strain/Indicator: WP2 UVRA, Metabolic Activation: MOUSE, LIVER, S-9, Method: STANDARD PLATE", "result": "inactive; negative"},
      {"measurement": "mutagenic call", "setting": "Test System: E. COLI, Strain/Indicator: WP2 UVRA, Metabolic Activation: NONE, Method: STANDARD PLATE", "result": "inactive; negative"},
      {"measurement": "mutagenic call", "setting": "Test System: E. COLI, Strain/Indicator: WP2 UVRA, Metabolic Activation: RAT, LIVER, S-9, Method: STANDARD PLATE", "result": "inactive; negative"},
      {"measurement": "mutagenic call", "setting": "Test System: MOUSE LYMPHOMA, Strain/Indicator: L5178Y (TK+/TK-), Metabolic Activation: NONE, Method: SUSPENSION/PLATE", "result": "active; positive"}
    ]},
    {"molecule": "O=C1OC(O)C(Cl)=C1Cl", "note": "(stereo unspecified)", "values": [
      {"measurement": "mutagenic call", "setting": "[3]", "result": "active; positive"},
      {"measurement": "mutagenic call", "setting": "Test System: UDS RAT HEPATOCYTES, Strain/Indicator: THYMIDINE INCORPORATION, Metabolic Activation: NONE, Method: AUTORADIOGRAPHY", "result": "active; positive"}
    ]},
    {"molecule": "Cc1ccc(C)c2c3c(ccc12)C(O)C(O)C1OC31", "note": "(stereo unspecified)", "values": [
      {"measurement": "mutagenic call", "setting": "[1]", "result": "active; positive"},
      {"measurement": "mutagenic call", "setting": "[3]", "result": "active; positive"}
    ]},
    {"molecule": "CC(C)[C@](O)(C(=O)O)[C@@H](C)O", "values": [
      {"measurement": "mutagenic call", "setting": "Test System: AMES SALMONELLA TYPHIMURIUM, Strain/Indicator: TA100, Metabolic Activation: HAMSTER, LIVER, S-9, PCB, Method: PREINCUBATION", "result": "inactive; negative"},
      {"measurement": "mutagenic call", "setting": "Test System: AMES SALMONELLA TYPHIMURIUM, Strain/Indicator: TA100, Metabolic Activation: RAT, LIVER, S-9, PCB, Method: PREINCUBATION", "result": "inactive; negative"}
    ]},
    {"molecule": "O=c1ccc2cc3c4c(c2o1)CCCN4CCC3", "values": [
      {"measurement": "mutagenic call", "setting": "[4]", "result": "inactive; negative"},
      {"measurement": "mutagenic call", "setting": "[5]", "result": "active; positive"}
    ]},
    {"molecule": "Cn1c2ccccc2c(=O)c2c(O)cc3c(c21)CC(C1(C)CO1)O3", "note": "(stereo unspecified)", "values": [
      {"measurement": "mutagenic call", "setting": "[1]", "result": "active; positive"},
      {"measurement": "mutagenic call", "setting": "Test System: AMES SALMONELLA TYPHIMURIUM, Strain/Indicator: TA98, Metabolic Activation: RAT, LIVER, S-9, 3-METHYLCHOLANTHRENE, Method: STANDARD PLATE", "result": "active; positive"},
      {"measurement": "mutagenic call", "setting": "Test System: AMES SALMONELLA TYPHIMURIUM, Strain/Indicator: TA98, Metabolic Activation: RAT, LIVER, S-9, PHENOBARBITAL, Method: STANDARD PLATE", "result": "active; positive"},
      {"measurement": "mutagenic call", "setting": "[2]", "result": "active; positive"},
      {"measurement": "mutagenic call", "setting": "[3]", "result": "active; positive"},
      {"measurement": "mutagenic call", "setting": "Test System: AMES SALMONELLA TYPHIMURIUM, Strain/Indicator: TA100, Metabolic Activation: RAT, LIVER, S-9, 3-METHYLCHOLANTHRENE, Method: STANDARD PLATE", "result": "active; positive"},
      {"measurement": "mutagenic call", "setting": "Test System: AMES SALMONELLA TYPHIMURIUM, Strain/Indicator: TA100, Metabolic Activation: RAT, LIVER, S-9, PHENOBARBITAL, Method: STANDARD PLATE", "result": "active; positive"},
      {"measurement": "mutagenic call", "setting": "Test System: AMES SALMONELLA TYPHIMURIUM, Strain/Indicator: TA100, Metabolic Activation: RAT, LIVER, S-9, Method: STANDARD PLATE", "result": "active; positive"}
    ]}
  ]
}
